Test results: PMC6222422, “Synthesis and Biological Evaluation of Novel Indole-Derived Thioureas” (Molecules : A Journal of Synthetic Chemistry and Natural …, 2018)
Read-outs that look alike come from different tables or passages of the source.

Experiments:
[1] = system: HIV-1 N119 (Y181C mutant); experiment: microbe, parasite or virus in culture; assay type: cell-based, Human Immunodeficiency Virus type-1; settings: read-out: EC50 N119
[2] = system: HIV-1 A17 (K103N + Y181C mutant); experiment: microbe, parasite or virus in culture; assay type: cell-based, Human Immunodeficiency Virus type-1; settings: read-out: EC50 A17
[3] = system: HIV-1 EFV^R (K103R + V179D + P225H mutant); experiment: microbe, parasite or virus in culture; assay type: cell-based, Human Immunodeficiency Virus type-1; settings: read-out: EC50 EFV^R
[4] = system: HIV-1 AZT^R strain (67N, 70R, 215F, 219Q); experiment: microbe, parasite or virus in culture; assay type: cell-based, Human Immunodeficiency Virus type-1; settings: read-out: EC50 AZT^R
[5] = system: HIV-1 MDR strain (74V, 41L, 106A, 215Y); experiment: microbe, parasite or virus in culture; assay type: cell-based, Human Immunodeficiency Virus type-1; settings: read-out: EC50 MDR
HIV-1 [6] = settings: read-out: EC50 HIV-1
BVDV = experiment: microbe, parasite or virus in culture; assay type: cell-based, bovine viral diarrhoea virus; settings: Bovine viral diarrhea virus isolates and strains, MDBK, in Bos taurus, read-out: BVDV EC50
YFV = experiment: microbe, parasite or virus in culture; assay type: cell-based; settings: Yellow fever virus, BHK, read-out: YFV EC50
CV-B5 = experiment: microbe, parasite or virus in culture; assay type: cell-based, coxsackievirus B5; settings: Enterovirus B, CVB5, Vero 76, read-out: CV-B5 EC50
Sb-1 = experiment: microbe, parasite or virus in culture; assay type: cell-based, poliovirus type-1; settings: Enterovirus C, Vero 76, read-out: Sb-1 EC50
Reo-1 = experiment: microbe, parasite or virus in culture; assay type: cell-based, reovirus type-1; settings: Reovirus sp., BHK, read-out: Reo-1 EC50
RSV = experiment: microbe, parasite or virus in culture; assay type: cell-based, human respiratory syncytial virus; settings: human respiratory syncytial virus, Vero 76, read-out: RSV EC50
VSV = experiment: microbe, parasite or virus in culture; assay type: cell-based; settings: Vesicular stomatitis virus, Vero 76, read-out: VSV EC50
VV = experiment: microbe, parasite or virus in culture; assay type: cell-based; settings: Orthopoxvirus vaccinia, Vero 76, read-out: VV EC50
HSV-1 = experiment: microbe, parasite or virus in culture; assay type: cell-based, human herpes 1; settings: Human alphaherpesvirus 1, Vero 76, read-out: HSV-1 EC50
[7] = system: cell lines derived from human haematological tumours; experiment: Cytotoxicity against cell lines derived from human haematological tumours, MTT; assay type: cell-based; settings: CCRF-CEM, WIL-2NS, CCRF-SB, read-out: CC50 range over cell lines derived from human haematological tumours
Description: Cell lines derived from human haematological tumours [CD4+ human acute T-lymphoblastic leukaemia (CCRF-CEM), human splenic B-lymphoblastoid cells (WIL-2NS), human acute B-lymphoblastic leukaemia (CCRF-SB)] were seeded at an initial density of 1 × 10^5 cells/mL in 96 well plates in RPMI-1640 medium supplemented with 10% foetal calf serum (FCS), 100 units/mL penicillin G and 100 μg/mL streptomycin. Cell viability was determined after 96 h at 37 °C by the MTT method. All cell cultures were then incubated at 37 °C in a humidified, 5% CO2 atmosphere, in the absence or presence of serial dilutions of test compounds in culture medium. Before dilutions, compounds were dissolved in DMSO at 100 mM.

in vitro [8] = settings: human
in vitro [9] = settings: cattle (Bos taurus)
in vitro [10] = settings: Syrian hamster (Mesocricetus auratus)
in vitro [11] = settings: African green monkey (Cercopithecus aethiops)
HIV-1 [12] = experiment: microbe, parasite or virus in culture; settings: Human immunodeficiency virus 1, MT4, read-out: HIV-1 EC50
CCRF-CEM = experiment: Cytotoxicity against leukaemia/lymphoma cell lines, MTT; settings: Homo sapiens, 96 h, read-out: CC50 CCRF-CEM
WIL-2NS = experiment: as above; settings: Homo sapiens, WIL2-NS, 96 h, read-out: CC50 WIL-2NS
CCRF-SB = experiment: as above; settings: Homo sapiens, 96 h, read-out: CC50 CCRF-SB
Cytotoxicity, MTT method [13] = settings: human
Cytotoxicity, MTT method [14] = settings: cattle (Bos taurus)
Cytotoxicity, MTT method [15] = settings: Syrian hamster (Mesocricetus auratus)
BHK cells = experiment: Cytotoxicity, MTT method; settings: read-out: BHK CC50; reduce the proliferation of mock-infected BHK cells by 50% (Table 6)
Cytotoxicity, MTT method [16] = settings: African green monkey (Cercopithecus aethiops)

Row | Structure (SMILES) | EC50 (BVDV) [µM] | EC50 (YFV) [µM] | EC50 (CV-B5) [µM] | EC50 (Sb-1) [µM] | EC50 (Reo-1) [µM] | EC50 (RSV) [µM] | EC50 (VSV) [µM] | EC50 (VV) [µM] | EC50 (HSV-1) [µM] | EC50 (HIV-1 [12]) [µM] | CC50 (CCRF-CEM) [µM] | CC50 (WIL-2NS) [µM] | CC50 (CCRF-SB) [µM] | CC50 (Cytotoxicity, MTT method [13]) [µM] | CC50 (Cytotoxicity, MTT method [14]) [µM] | CC50 (Cytotoxicity, MTT method [15]) [µM] | CC50 (BHK cells) [µM] | CC50 (Cytotoxicity, MTT method [16]) [µM] | also measured
1 | Cc1cn([C@H]2C[C@H](N=[N+]=[N-])[C@@H](CO)O2)c(=O)[nH]c1=O [AZT] |  |  |  |  |  |  |  |  |  |  |  |  |  |  |  |  |  |  | EC50 [1]: 0.025 ± 0.004 µM; EC50 [2]: 0.01 ± 0.001 µM; EC50 [3]: 0.02 ± 0.001 µM; EC50 [4]: 0.35 ± 0.04 µM; EC50 [5]: 0.08 ± 0.006 µM; CC50 (MT-4 cells): 45 µM; EC50 (HIV-1 [6]): 0.022 ± 0.004 µM
2 | S=C(NCCc1c[nH]c2ccccc12)Nc1ccc(I)cc1 [Compound 21, 1-(2-(1H-Indol-3-yl)ethyl)-3-(4-iodophenyl)thiourea] | > 100 | > 11 | > 11 | > 11 | > 11 | > 11 | > 11 | > 11 | > 11 | > 2.4 | 5 ± 0.8 | 5.8 ± 1 | 12 ± 1.6 |  |  |  |  |  | CC50 [7]: 5 to 12 µM; melting point: 162 to 165 °C; CC50 (in vitro [8]): 2.4 ± 0.2 µM; CC50 (in vitro [9]): > 100 µM; CC50 (in vitro [10]): 11 µM; CC50 (in vitro [11]): 11 µM
3 | CNC(=S)NCCc1c[nH]c2ccccc12 [Compound 25, 1-(2-(1H-Indol-3-yl)ethyl)-3-methylthiourea] | > 100 | > 100 | > 100 | > 100 | > 100 | > 100 | > 100 | > 100 | > 100 | > 100 |  |  |  | > 100 | > 100 | > 100 | > 100 | > 100 | 
4 | CCNC(=S)NCCc1c[nH]c2ccccc12 [Compound 22, 1-(2-(1H-Indol-3-yl)ethyl)-3-ethylthiourea] | > 100 | > 100 | > 100 | > 100 | > 100 | > 100 | > 100 | > 100 | > 100 | > 100 |  |  |  | > 100 | > 100 | > 100 | > 100 | > 100 | 
5 | COc1cccc2c1C(=O)c1c(O)c3c(c(O)c1C2=O)C[C@@](O)(C(=O)CO)C[C@@H]3O[C@H]1C[C@H](N)[C@H](O)[C@H](C)O1 [Doxorubicin, reference compound] |  |  |  |  |  |  |  |  |  |  | 0.02 ± 0.002 | 0.02 ± 0.003 | 0.03 ± 0.003 |  |  |  |  |  | 
